Laboratory results taken from ChEMBL document CHEMBL5154689, “Discovery of novel β-carboline derivatives as selective AChE inhibitors with GSK-3β inhibitory property for the treatment of Alzheimer's disease” (Eur J Med Chem, 2022).
The source made the active and inactive calls. The rule behind the calls is not given here.

Tests used:
[1] = target: Cholinesterase (Equus caballus) (UniProt P81908); test: Inhibition of equine serum BChE at 50 uM using butyrylthiocholine iodide as substrate preincubated with enzyme for 20 mins followed by substrate addition and measured after 20 mins by Ellman's method; assay type: cell-free; conditions: time 40.0 min
Acetylcholinesterase = Acetylcholinesterase (Electrophorus electricus, UniProt O42275); test: Inhibition of electric eel AChE using acetylthiocholine iodide as substrate preincubated with enzyme for 20 mins followed by substrate addition and measured after 20 mins by Ellman's method
Cholinesterase = Cholinesterase (Equus caballus, UniProt P81908); test: Inhibition of equine serum BChE using butyrylthiocholine iodide as substrate preincubated with enzyme for 20 mins followed by substrate addition and measured after 20 mins by Ellman's method; assay type: cell-free
[2] = Selectivity index, ratio of IC50 for equine serum BChE to IC50 for electric eel AChE
[3] = target: T1, Glycogen synthase kinase-3 beta (Homo sapiens, UniProt P49841); test: Inhibition of GSK3-beta (unknown origin) at 10 uM incubated for 60 mins by ATP-Glo luminescent assay
Target sequence in this assay (P49841 whole entry, looked up): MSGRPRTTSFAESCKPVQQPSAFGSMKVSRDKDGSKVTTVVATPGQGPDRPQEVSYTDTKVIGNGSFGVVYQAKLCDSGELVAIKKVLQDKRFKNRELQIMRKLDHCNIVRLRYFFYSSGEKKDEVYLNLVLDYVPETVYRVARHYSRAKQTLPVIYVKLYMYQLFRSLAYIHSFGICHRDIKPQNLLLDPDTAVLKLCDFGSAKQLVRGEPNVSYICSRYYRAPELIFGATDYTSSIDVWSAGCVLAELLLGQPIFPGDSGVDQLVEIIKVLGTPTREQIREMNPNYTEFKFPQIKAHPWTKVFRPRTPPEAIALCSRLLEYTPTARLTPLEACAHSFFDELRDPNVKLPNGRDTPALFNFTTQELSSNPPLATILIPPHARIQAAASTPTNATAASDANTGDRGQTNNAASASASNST

[4] = target: T1, Glycogen synthase kinase-3 beta; test: Inhibition of GSK3-beta (unknown origin) incubated for 60 mins by ATP-Glo luminescent assay
Target sequence in this assay (P49841 whole entry): as the sequence (P49841 whole entry, looked up) above

[5] = target: Dual specificity tyrosine-phosphorylation-regulated kinase 1A (Homo sapiens) (UniProt Q13627); test: Inhibition of DYRK1A (unknown origin) at 0.5 to 1 uM; conditions: dose 0.5-1 µM
[6] = target: Dual specificity tyrosine-phosphorylation-regulated kinase 1B (Homo sapiens) (UniProt Q9Y463); test: Inhibition of DYRK1B (unknown origin) at 0.5 to 1 uM; conditions: dose 0.5-1 µM
SH-SY5Y [7] = test: Cytotoxicity against human SH-SY5Y cells assessed as reduction in cell viability at 1 to 20 uM incubated for 48 hrs by MTT assay; assay type: toxicity, cell-based; conditions: dose 1-20 µM
HepG2 = test: Cytotoxicity against human HepG2 cells assessed as reduction in cell viability at 1 to 20 uM incubated for 48 hrs by MTT assay; assay type: toxicity, cell-based; conditions: hepg2, 48 h, dose 1-20 µM
L02 [8] = test: Cytotoxicity against human HL7702 cells assessed as reduction in cell viability at 1 to 20 uM incubated for 48 hrs by MTT assay; assay type: toxicity, cell-based; conditions: l02, 48 h, dose 1-20 µM
HEK-293T = test: Cytotoxicity against human HEK-293T cells assessed as reduction in cell viability at 1 to 20 uM incubated for 48 hrs by MTT assay; assay type: toxicity, cell-based; conditions: dose 1-20 µM
[9] = Acute toxicity in C57BL/6 mouse assessed as effect on body weight at 1000 to 1500 mg/kg measured after 14 days; assay type: organism-based; conditions: in vivo, 336 h, dose 1000-1500 mg/kg, time 14 day
[10] = target: T1, Glycogen synthase kinase-3 beta; test: Inhibition of GSK3-beta in human HEK293T cells harboring tau P301L mutant assessed as inhibition of tau hyperphosphorylation at Ser396 residue measured after 48 hrs by western blot analysis; assay type: cell-based; conditions: dose 2.5-10 µM, DDE = dose-dependent effect
Target sequence in this assay (P49841 whole entry, looked up): as above

[11] = target: Glycogen synthase kinase-3 alpha (Homo sapiens) (UniProt P49840); test: Inhibition of GSK3-alpha (unknown origin) at 0.5 to 1 uM; conditions: dose 0.5-1 µM
[12] = target: T1, Glycogen synthase kinase-3 beta; test: Inhibition of GSK3-beta in human HEK293T cells harboring tau P301L mutant assessed as reduction of NFT production measured after 24 hrs by fluorescence staining based analysis; assay type: cell-based; conditions: dose 2.5-10 µM, DDE = dose-dependent effect
Target sequence in this assay (P49841 whole entry, looked up): as above

[13] = target: Acetylcholinesterase (Electrophorus electricus) (UniProt O42275); test: Potency index, ratio of harmine IC50 to test compound IC50 for electric eel AChE
[14] = target: T1, Glycogen synthase kinase-3 beta; test: Inhibition of GSK3-beta in human HEK293T cells harboring tau P301L mutant assessed as increase in GSK3-beta phosphorylation at Ser9 residue measured after 48 hrs by western blot analysis; assay type: cell-based; conditions: dose 2.5-10 µM, DDE = dose-dependent effect
Target sequence in this assay (P49841 whole entry, looked up): as above

SH-SY5Y [15] = test: Cytotoxicity against human SH-SY5Y cells assessed as reduction in cell viability at 10 uM incubated for 48 hrs by MTT assay; assay type: toxicity, cell-based
L02 [16] = test: Cytotoxicity against human HL7702 cells assessed as reduction in cell viability at 10 uM incubated for 48 hrs by MTT assay; assay type: toxicity, cell-based; conditions: l02, 48 h

Acetylcholinesterase, sequence (O42275 whole entry): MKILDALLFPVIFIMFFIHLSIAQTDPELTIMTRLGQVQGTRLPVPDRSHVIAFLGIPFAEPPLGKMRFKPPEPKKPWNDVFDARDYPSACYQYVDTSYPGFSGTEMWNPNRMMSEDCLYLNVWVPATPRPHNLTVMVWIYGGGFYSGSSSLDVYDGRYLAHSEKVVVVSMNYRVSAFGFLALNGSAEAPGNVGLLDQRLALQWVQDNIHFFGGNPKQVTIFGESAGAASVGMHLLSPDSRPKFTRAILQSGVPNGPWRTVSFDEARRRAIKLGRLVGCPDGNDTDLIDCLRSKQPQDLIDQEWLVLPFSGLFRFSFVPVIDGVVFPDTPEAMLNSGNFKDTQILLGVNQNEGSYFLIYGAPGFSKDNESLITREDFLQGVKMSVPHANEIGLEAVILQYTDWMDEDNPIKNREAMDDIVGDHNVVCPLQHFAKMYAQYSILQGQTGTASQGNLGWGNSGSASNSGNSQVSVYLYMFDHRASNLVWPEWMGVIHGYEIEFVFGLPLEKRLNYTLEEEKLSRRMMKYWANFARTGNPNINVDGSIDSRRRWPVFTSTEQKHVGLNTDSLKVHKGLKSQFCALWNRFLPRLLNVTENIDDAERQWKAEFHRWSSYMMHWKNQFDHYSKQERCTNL
Cholinesterase (Equus caballus), sequence (P81908 whole entry): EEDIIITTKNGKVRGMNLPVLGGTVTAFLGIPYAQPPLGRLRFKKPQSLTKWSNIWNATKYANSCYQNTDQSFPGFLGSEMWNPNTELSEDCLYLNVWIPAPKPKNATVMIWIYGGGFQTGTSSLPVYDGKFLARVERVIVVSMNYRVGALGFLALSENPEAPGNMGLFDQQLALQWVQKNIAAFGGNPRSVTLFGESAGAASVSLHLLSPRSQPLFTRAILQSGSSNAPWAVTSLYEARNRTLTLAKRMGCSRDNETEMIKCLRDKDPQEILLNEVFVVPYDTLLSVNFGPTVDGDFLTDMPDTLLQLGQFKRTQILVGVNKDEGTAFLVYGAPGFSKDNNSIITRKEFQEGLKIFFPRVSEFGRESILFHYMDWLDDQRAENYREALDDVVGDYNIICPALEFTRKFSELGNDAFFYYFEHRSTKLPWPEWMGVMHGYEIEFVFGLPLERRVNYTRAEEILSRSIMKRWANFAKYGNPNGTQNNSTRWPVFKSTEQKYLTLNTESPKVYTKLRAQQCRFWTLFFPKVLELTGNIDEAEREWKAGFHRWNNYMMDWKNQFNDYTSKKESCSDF
Cholinesterase, sequence (P81908 whole entry): as above
Acetylcholinesterase (Electrophorus electricus), sequence (O42275 24-633 limits assumed): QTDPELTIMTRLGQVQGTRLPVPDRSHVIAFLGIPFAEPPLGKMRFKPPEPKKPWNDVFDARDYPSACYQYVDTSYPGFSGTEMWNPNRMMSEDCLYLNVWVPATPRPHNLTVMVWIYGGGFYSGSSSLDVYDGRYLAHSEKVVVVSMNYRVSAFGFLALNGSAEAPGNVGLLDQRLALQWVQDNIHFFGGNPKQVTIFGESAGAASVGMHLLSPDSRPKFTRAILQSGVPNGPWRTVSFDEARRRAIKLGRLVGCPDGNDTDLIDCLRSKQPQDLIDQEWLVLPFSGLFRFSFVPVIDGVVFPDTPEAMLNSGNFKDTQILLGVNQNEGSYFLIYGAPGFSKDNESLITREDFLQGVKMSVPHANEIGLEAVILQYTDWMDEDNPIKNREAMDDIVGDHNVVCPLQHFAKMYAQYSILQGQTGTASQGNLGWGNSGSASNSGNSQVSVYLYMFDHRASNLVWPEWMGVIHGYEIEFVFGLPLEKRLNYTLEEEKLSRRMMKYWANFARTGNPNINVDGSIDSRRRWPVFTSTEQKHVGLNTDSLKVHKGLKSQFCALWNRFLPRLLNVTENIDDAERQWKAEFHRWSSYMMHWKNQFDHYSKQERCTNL
Dual specificity tyrosine-phosphorylation-regulated kinase 1B (Homo sapiens), sequence (Q9Y463 whole entry, looked up): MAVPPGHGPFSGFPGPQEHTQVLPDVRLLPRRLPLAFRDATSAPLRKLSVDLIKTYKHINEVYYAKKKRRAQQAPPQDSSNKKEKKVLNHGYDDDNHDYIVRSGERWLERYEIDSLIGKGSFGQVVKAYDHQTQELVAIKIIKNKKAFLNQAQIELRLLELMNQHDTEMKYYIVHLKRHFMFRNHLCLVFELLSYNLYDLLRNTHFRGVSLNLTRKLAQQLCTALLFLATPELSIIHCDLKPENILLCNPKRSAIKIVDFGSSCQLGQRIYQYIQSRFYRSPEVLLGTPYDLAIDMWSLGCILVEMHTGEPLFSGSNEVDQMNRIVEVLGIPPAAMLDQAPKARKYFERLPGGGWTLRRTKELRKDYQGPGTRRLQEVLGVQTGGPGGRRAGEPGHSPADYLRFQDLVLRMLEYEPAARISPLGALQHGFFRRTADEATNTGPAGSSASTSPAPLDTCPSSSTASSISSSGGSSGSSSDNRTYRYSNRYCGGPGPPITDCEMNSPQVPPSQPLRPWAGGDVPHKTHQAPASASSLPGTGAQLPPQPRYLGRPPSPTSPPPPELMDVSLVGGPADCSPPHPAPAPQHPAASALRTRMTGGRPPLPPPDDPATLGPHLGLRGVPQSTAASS
Glycogen synthase kinase-3 alpha (Homo sapiens), sequence (P49840 2-483 limits assumed): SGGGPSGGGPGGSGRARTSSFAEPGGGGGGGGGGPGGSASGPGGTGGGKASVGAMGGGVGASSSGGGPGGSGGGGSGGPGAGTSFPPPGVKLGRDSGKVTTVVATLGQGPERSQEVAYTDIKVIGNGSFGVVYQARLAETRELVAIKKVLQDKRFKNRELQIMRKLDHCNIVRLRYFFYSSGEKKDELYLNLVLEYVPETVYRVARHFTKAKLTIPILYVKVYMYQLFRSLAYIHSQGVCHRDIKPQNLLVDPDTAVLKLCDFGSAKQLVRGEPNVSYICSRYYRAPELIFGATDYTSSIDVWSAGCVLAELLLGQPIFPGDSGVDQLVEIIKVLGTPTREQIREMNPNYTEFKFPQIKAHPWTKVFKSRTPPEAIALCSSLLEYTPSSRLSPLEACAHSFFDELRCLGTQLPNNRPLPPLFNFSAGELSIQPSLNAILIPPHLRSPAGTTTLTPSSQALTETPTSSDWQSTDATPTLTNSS

Compound | inhibition [1] | IC50 (Acetylcholinesterase) | IC50 (Cholinesterase) | Ratio IC50 [2] | inhibition [3] | further results
O=C(NCC1CCN(Cc2ccc(F)cc2)CC1)c1ccc2c(c1)[nH]c1c(NC(=O)C3CC3)nccc12 | 39.7% | 3.08 µM | > 50 µM | > 16.2 | 40.9% | –
O=C(NC1CCN(Cc2ccc(F)cc2)CC1)c1ccc2c(c1)[nH]c1c(NC(=O)C3CC3)nccc12 | 36.9% | 2.14 µM | > 50 µM | > 23.4 | 74.6% | –
O=C(NCC1CCN(Cc2c(Cl)cccc2Cl)CC1)c1ccc2c(c1)[nH]c1c(NC(=O)C3CC3)nccc12 | < 10% | 0.34 µM | > 50 µM | > 147 | 11.3% | –
COc1ccc2c(c1)[nH]c1c(C)nccc12 [HARMINE] | 74.1% | 10.1 µM | 13.6 µM | – | – | –
O=C(NC1CCN(Cc2ccccc2F)CC1)c1ccc2c(c1)[nH]c1c(NC(=O)C3CC3)nccc12 | 30.8% | 2.64 µM | > 50 µM | > 18.9 | 84.6% | –
O=C(NC1CCN(Cc2c(Cl)cccc2Cl)CC1)c1ccc2c(c1)[nH]c1c(NC(=O)C3CC3)nccc12 | < 10% | 2.01 µM | > 50 µM | > 24.9 | 21.9% | –
Cc1ccc(CN2CCC(NC(=O)c3ccc4c(c3)[nH]c3c(NC(=O)C5CC5)nccc34)CC2)cc1 | 23% | 8.56 µM | > 50 µM | > 5.84 | 10.5% | –
O=C(NC1CCN(Cc2ccccc2)CC1)c1ccc2c(c1)[nH]c1c(NC(=O)C3CC3)nccc12 | 52.6% | 2.33 µM | 38.8 µM | 16.6 | 63.3% | –
O=C(NCC1CCN(Cc2ccccc2)CC1)c1ccc2c(c1)[nH]c1c(NC(=O)C3CC3)nccc12 | 37.2% | 1.73 µM | > 50 µM | 48.1 | 20.8% | –
O=C(NCC1CCN(Cc2cc(F)cc(F)c2)CC1)c1ccc2c(c1)[nH]c1c(NC(=O)C3CC3)nccc12 | 10.4% | 5.04 µM | > 50 µM | > 9.92 | – | –
O=C(NCCC1CCN(Cc2c(Cl)cccc2Cl)CC1)c1ccc2c(c1)[nH]c1c(NC(=O)C3CC3)nccc12 | < 10% | 0.89 µM | > 50 µM | > 56.2 | 52.1% | –
Cc1ccc(CN2CCC(CCNC(=O)c3ccc4c(c3)[nH]c3c(NC(=O)C5CC5)nccc34)CC2)cc1 | 44.3% | 2.74 µM | > 50 µM | > 18.2 | 62.7% | –
O=C(NCC1CCN(Cc2ccccc2F)CC1)c1ccc2c(c1)[nH]c1c(NC(=O)C3CC3)nccc12 | 55.6% | 0.84 µM | 34.2 µM | 40.7 | 42.1% | –
O=C(NCCC1CCN(Cc2ccccc2)CC1)c1ccc2c(c1)[nH]c1c(NC(=O)C3CC3)nccc12 | 68.3% | 0.78 µM | 23.6 µM | 30.2 | -2.01% | –
O=C(NCCC1CCN(Cc2ccccc2F)CC1)c1ccc2c(c1)[nH]c1c(NC(=O)C3CC3)nccc12 | 63% | 0.27 µM | 20.8 µM | 77.1 | 60.8% | IC50 [4]: 6.78 µM; inhibition [5]: Active; inhibition [6]: Active; Activity (SH-SY5Y [7]): Non-Toxic; Activity (HepG2): Non-Toxic; Activity (L02 [8]): Non-Toxic; Activity (HEK-293T): Non-Toxic; Activity [9]: Non-Toxic; inhibition [10]: Dde; inhibition [11]: Active; inhibition [12]: Dde; Ratio IC50 [13]: 37; inhibition [14]: Dde
O=C(NC1CCN(Cc2cccc([N+](=O)[O-])c2)CC1)c1ccc2c(c1)[nH]c1c(NC(=O)C3CC3)nccc12 | 20.1% | 2.77 µM | > 50 µM | > 18.1 | 78% | –

Compound | inhibition [1] | IC50 (Acetylcholinesterase) | IC50 (Cholinesterase) | Ratio IC50 [2] | inhibition [3] | further results
O=C(NCCC1CCN(Cc2cccc(F)c2)CC1)c1ccc2c(c1)[nH]c1c(NC(=O)C3CC3)nccc12 | 65.4% | 0.96 µM | 19.9 µM | > 50.1 | 47.8% | –
O=C(NCC1CCN(Cc2cccc(F)c2)CC1)c1ccc2c(c1)[nH]c1c(NC(=O)C3CC3)nccc12 | 32.6% | 2.24 µM | > 50 µM | > 22.3 | 11.1% | –
O=C(NCC1CCN(Cc2ccc(Cl)cc2)CC1)c1ccc2c(c1)[nH]c1c(NC(=O)C3CC3)nccc12 | < 10% | 19.6 µM | > 50 µM | > 2.55 | 11.7% | –
O=C(NCCC1CCN(Cc2cc(F)cc(F)c2)CC1)c1ccc2c(c1)[nH]c1c(NC(=O)C3CC3)nccc12 | < 10% | 5.8 µM | > 50 µM | > 8.62 | 2.71% | –
O=C(NCC1CCN(Cc2ccc(C(F)(F)F)cc2)CC1)c1ccc2c(c1)[nH]c1c(NC(=O)C3CC3)nccc12 | < 10% | 10.4 µM | > 50 µM | > 4.81 | 59.5% | –
O=C(NCCC1CCN(Cc2ccc(Cl)cc2)CC1)c1ccc2c(c1)[nH]c1c(NC(=O)C3CC3)nccc12 | < 10% | 14.9 µM | > 50 µM | > 3.35 | 84.3% | Activity (SH-SY5Y [15]): Toxic; Activity (L02 [16]): Toxic
O=C(NC1CCN(Cc2ccc(Cl)cc2)CC1)c1ccc2c(c1)[nH]c1c(NC(=O)C3CC3)nccc12 | < 10% | 18.9 µM | > 50 µM | > 2.64 | 57.9% | –
COC(=O)c1ccc2c(c1)[nH]c1c(NC(=O)C3CC3)nccc12 | – | > 20 µM | > 20 µM | – | – | IC50 [4]: 0.07 µM
O=C(NC1CCN(Cc2cc(F)cc(F)c2)CC1)c1ccc2c(c1)[nH]c1c(NC(=O)C3CC3)nccc12 | < 10% | 33.5 µM | > 50 µM | > 1.49 | 41.9% | –
O=C(NCCC1CCN(Cc2ccc(C(F)(F)F)cc2)CC1)c1ccc2c(c1)[nH]c1c(NC(=O)C3CC3)nccc12 | < 10% | 31.2 µM | > 50 µM | > 1.6 | 73.8% | Activity (SH-SY5Y [15]): Toxic; Activity (L02 [16]): Toxic
O=C(NC1CCN(Cc2ccc(C(F)(F)F)cc2)CC1)c1ccc2c(c1)[nH]c1c(NC(=O)C3CC3)nccc12 | < 10% | 13.9 µM | > 50 µM | > 3.6 | 71.9% | –
O=C(NC1CCN(Cc2cccc(F)c2)CC1)c1ccc2c(c1)[nH]c1c(NC(=O)C3CC3)nccc12 | 30.8% | 2.22 µM | > 50 µM | > 22.5 | 79.8% | –
O=C(NCC1CCN(Cc2cccc([N+](=O)[O-])c2)CC1)c1ccc2c(c1)[nH]c1c(NC(=O)C3CC3)nccc12 | < 10% | 2.05 µM | > 50 µM | > 24.4 | 52.1% | –
Cc1ccc(CN2CCC(CNC(=O)c3ccc4c(c3)[nH]c3c(NC(=O)C5CC5)nccc34)CC2)cc1 | 15.3% | 3.02 µM | > 50 µM | > 16.6 | 46.4% | –
O=C(NCCC1CCN(Cc2cccc([N+](=O)[O-])c2)CC1)c1ccc2c(c1)[nH]c1c(NC(=O)C3CC3)nccc12 | 21.5% | 1.57 µM | > 50 µM | > 31.9 | 66.2% | –
O=C(NCCC1CCN(Cc2ccc(F)cc2)CC1)c1ccc2c(c1)[nH]c1c(NC(=O)C3CC3)nccc12 | 68.7% | 1.21 µM | 20.3 µM | 16.8 | 14.9% | –
